Test results from article PMC11060137, “A Phase I Study of KIN-3248, an Irreversible Small-molecule Pan-FGFR Inhibitor, in Patients with Advanced FGFR2/3-driven Solid Tumors” (Cancer Research Communications, 2024).
Read-outs that look alike come from different tables or passages of the source.

Tests used:
[1] = tested on: patients with advanced solid tumors harboring FGFR2 and/or FGFR3 gene alterations
Description: The study was divided into two parts. […] The secondary objectives included antitumor activity in Part A, determination of pharmacokinetics and pharmacodynamics.
Dose level 1 was started at 5 mg oral daily, and patients were escalated on study to 50 mg daily. On the basis of ongoing efficacy, toxicity, and pharmacokinetic analysis, a planned amendment added additional cohorts up to 80 mg orally daily to define the MTD/RP2D. […] One cycle was 28 days of continuous dosing. Intrapatient dose escalation after safely tolerating two cycles was allowed if per protocol criteria were met. Patients continued therapy until evidence of disease progression, intolerance or unacceptable toxicity, withdrawal of consent, investigator decision, sponsor decision, or death.
Patients were evaluated with medical history, physical examinations, and clinical laboratory on days 1, 8, 15, and 22 of cycle 1; days 1 and 15 from cycle 2 through cycle 5; and day 1 of each subsequent cycle. […] Except for hyperphosphatemia, adverse events (AE) were graded according to the NCI-CTCAE (Common Terminology Criteria for Adverse Events) Version 5.0 at each study visit and for approximately 30 days following end of treatment.
The primary endpoints for the overall study, included: the incidence of DLTs, incidence of AEs, treatment-emergent AEs (TEAE), and treatment-related AEs (TRAE).

ctDNA = ctDNA molecular response (change in mean VAF, PredicineATLAS); format: in vivo, human; details: after 1 cycle; 26 patients evaluable for RECIST and ctDNA response
From the text: Whole blood was collected into Streck Cell Free BCT DNA tubes on cycle 1 day 1 and cycle 2 day 1. Samples were processed to extract plasma followed by cell-free DNA isolation, which was then interrogated by PredicineATLAS, a 600 gene assay able to detect SNVs, indels, rearrangements, fusions, and copy-number gains, as described previously ([19]).
For each patient with available paired ctDNA, the change in ctDNA after one cycle of treatment was summarized by calculating the mean variant allele frequency (VAF) of all somatic mutations at each timepoint and then taking the ratio as follows: [(mean VAF^C2D1/mean VAF^C1D1) −1]*100 ([20]). For somatic mutations detected in only one sample of a patient-matched pair, the VAF was imputed to be zero for calculation purposes, when the mutation was not detected. Change in match pair ctDNA was correlated both categorically with RECIST v 1.1 response and continuously (Pearson R) with the best % change in target lesions. Biomarker analyses were conducted using R [R Core Team 2023 ([21])].

[2] = tested on: molecular break (N549H) resistance mutation; set-up: method as in PMID 38267212; details: cited from earlier work
[3] = tested on: advanced solid tumors harboring FGFR2 and/or FGFR3 gene alterations; experiment: Antitumor activity by RECIST v1.1; format: in vivo, human
wild-type FGFR = tested on: wild-type FGFR; set-up: method as in PMID 38267212; details: cited from earlier work
serum phosphate = experiment: Serum phosphate as pharmacodynamic biomarker; format: in vivo, human
Description: (§1) As FGFR1 is expressed in renal tubules and pharmacologic inhibition of FGFR1 leads to phosphate retention ([18]), serum phosphate levels were measured at each study visit as a pharmacodynamic biomarker. Paired pretreatment and on-treatment biopsies (cycle 1 day 8 to day 21) were collected and analyzed for phospho-ERK and total ERK by IHC. DUSP6 gene expression was measured in tumor samples using RNA ISH (RNAscope; probes from Advanced Cell Diagnostics).

[4] = tested on: FGFR2/3-driven cholangiocarcinoma, gastric, and bladder cancer xenograft models; set-up: method as in PMID 38267212; details: cited from earlier work
phospho-ERK = experiment: Phospho-ERK relative to total ERK by IHC in paired biopsies; format: in vivo, human
Description: as §1

[5] = Plasma pharmacokinetics in patients (LC/MS-MS, noncompartmental); format: in vivo, human
Description: Blood for pharmacokinetic analysis was collected C1D1 (pretreatment and postdose at 0.25, 0.5, 1, 2, 4, 6, 8, 10 hours), […] (pretreatment, postdose at 1 and 2 hours), C1D8 and day 15 (pretreatment, postdose 1 hour), C2D1 (pretreatment, postdose at 0.25, 0.5, 1, 2, 4, 6, 8, 10 hours), and pretreatment and 1 hour postdose on day 1 of C3, C4 and cycle 5. KIN-3248 concentration was determined at each timepoint by an established and validated LC/MS-MS assay.

[6] = tested on: gatekeeper (V564F) resistance mutation; set-up: method as in PMID 38267212; details: cited from earlier work

Structure (SMILES): C=CC(=O)N1C[C@@H](n2nc(C#Cc3c(F)cc4c(ncn4C4CC4)c3F)c(C(N)=O)c2NC)C[C@@H]1COC [KIN-3248]
- TEAE Skin and subcutaneous tissue disorders, n (%) ([1]; CTCAE (V5) Grade 3, N = 54): 0
- TEAE Stomatitis, n (%) ([1]; CTCAE (V5) Grade 3, N = 54): 0
- TEAE Vascular disorders, n (%) ([1]; CTCAE (V5) Grade 3, N = 54): 3 (5.6%)
- Patient with any TEAE, n (%) ([1]; CTCAE (V5) Grade 4–5, N = 54): 7 (13.0%)
- TEAE Alanine aminotransferase increased, n (%) ([1]; CTCAE (V5) Grade 4–5, N = 54): 0
- TEAE Anemia, n (%) ([1]; CTCAE (V5) Grade 4–5, N = 54): 0
- TEAE Aspartate aminotransferase increased, n (%) ([1]; CTCAE (V5) Grade 4–5, N = 54): 0
- TEAE Blood and lymphatic system disorders, n (%) ([1]; CTCAE (V5) Grade 4–5, N = 54): 0
- TEAE Blood creatinine increased, n (%) ([1]; CTCAE (V5) Grade 4–5, N = 54): 0
- TEAE Constipation, n (%) ([1]; CTCAE (V5) Grade 4–5, N = 54): 0
- TEAE Decreased appetite, n (%) ([1]; CTCAE (V5) Grade 4–5, N = 54): 0
- TEAE Diarrhea, n (%) ([1]; CTCAE (V5) Grade 4–5, N = 54): 0
- TEAE Dry mouth, n (%) ([1]; CTCAE (V5) Grade 4–5, N = 54): 0
- TEAE Eye disorders, n (%) ([1]; CTCAE (V5) Grade 4–5, N = 54): 0
- TEAE Fatigue, n (%) ([1]; CTCAE (V5) Grade 4–5, N = 54): 0
- TEAE Gastrointestinal disorders, n (%) ([1]; CTCAE (V5) Grade 4–5, N = 54): 0
- TEAE General disorders and administration site conditions, n (%) ([1]; CTCAE (V5) Grade 4–5, N = 54): 1 (1.9%)
- TEAE Hypercalcemia, n (%) ([1]; CTCAE (V5) Grade 4–5, N = 54): 0
- TEAE Hyperphosphatemia, n (%) ([1]; CTCAE (V5) Grade 4–5, N = 54): 0
- TEAE Infections and infestations, n (%) ([1]; CTCAE (V5) Grade 4–5, N = 54): 2 (3.7%)
- TEAE Investigations, n (%) ([1]; CTCAE (V5) Grade 4–5, N = 54): 2 (3.7%)
- TEAE Metabolism and nutrition disorders, n (%) ([1]; CTCAE (V5) Grade 4–5, N = 54): 0
- TEAE Musculoskeletal and connective tissue disorders, n (%) ([1]; CTCAE (V5) Grade 4–5, N = 54): 0
- TEAE Nausea, n (%) ([1]; CTCAE (V5) Grade 4–5, N = 54): 0
- TEAE Nervous system disorders, n (%) ([1]; CTCAE (V5) Grade 4–5, N = 54): 1 (1.9%)
- TEAE Psychiatric disorders, n (%) ([1]; CTCAE (V5) Grade 4–5, N = 54): 0
- TEAE Respiratory, thoracic, and mediastinal disorders, n (%) ([1]; CTCAE (V5) Grade 4–5, N = 54): 1 (1.9%)
- TEAE Skin and subcutaneous tissue disorders, n (%) ([1]; CTCAE (V5) Grade 4–5, N = 54): 0
- TEAE Stomatitis, n (%) ([1]; CTCAE (V5) Grade 4–5, N = 54): 0
- TEAE Vascular disorders, n (%) ([1]; CTCAE (V5) Grade 4–5, N = 54): 0
- MTD ([1]; doses up to 50 mg orally daily): not reached
- Treatment-related deaths ([1]; in vivo): no treatment-related deaths
- Treatment-related grade 3 hyperphosphatasemia ([1]; only event reported in more than 1 patient): 14.8%
- TEAE deaths ([1]; three related to progressive disease, one to a cardiovascular accident): Four
- Patients with greater than 50% decrease in mean VAF (ctDNA): Six
- IC50 [2]: low nanomolar
- Best response in pretreated ICC patients with FGFR2 kinase domain resistance mutations ([3]; 3 patients): progressive disease
- Response in FGFR2/3 fusion patients ([3]; 5 patients): 20%
- ORR ([3]; 54 patients): 9.25%
- Responders among FGFR inhibitor pretreated patients with acquired FGFR resistance mutations in ctDNA ([3]; of 4 patients, gastric cancer): 1
- Confirmed responders among FGFR inhibitor experienced patients ([3]; of 23 patients): 1
- Confirmed responders among FGFR inhibitor naïve patients ([3]; of 31 patients): 3
- Responders among FGFR inhibitor naïve patients ([3]; of 31 patients): 4
- Patients achieving CR ([3]; of 54 patients enrolled): none
- Patients achieving PR ([3]; of 54 patients enrolled): 5
- DCR ([3]; total population): 46%
- Patients achieving SD ([3]; twenty patients): 37.0%
- IC50 (wild-type FGFR): low nanomolar
- Serum phosphate versus dose and exposure (serum phosphate; 54 participants): increased with dose and exposure
- Onset of serum phosphate elevations (serum phosphate; all dose levels): within the f irst week
- Tumor inhibition [4]: dose-dependent tumor inhibition
- Phospho-ERK relative to total-ERK (phospho-ERK; eleven paired biopsy samples, IHC): trend toward reduction
- Samples tested with a reduction in p-ERK (phospho-ERK; paired pretreatment and on-treatment biopsies): 50%
- Exposure versus dose ([5]; 5-50 mg): generally dose proportional
- Concentrations in Asian (China, Taiwan, Korean) versus non-Asian patients ([5]; exploratory analysis): not a qualitative difference
- Accumulation ([5]; first two cycles): not observed
- Apparent clearance (CL/F) ([5]; human, in vivo): 23,300-32,100 mL/hour
- Steady-state geometric mean half-life (t1/2) ([5]; human, in vivo): approximately 4 hours
- Volume of distribution (V/F) ([5]; human, in vivo): 135,000-200,000 mL
- IC50 [6]: low nanomolar
